System: MCF7/D40 tumors
Experiment: Biodistribution in mice bearing MCF7/D40 tumors
Type: in vivo, SCID mice
Method: Tumor cell lines used. MCF7/S: Cells are parental, drug (doxorubicin) sensitive, breast carcinoma cells. MCF7/D40: Cells were generated in vitro by successive culturing parental MCF7 cells in slowly increasing concentrations of doxorubicin with a total selection time of 31 months. Twenty-eight SCID mice were studied. MCF7/S or MCF7/D40 tumors were grown for 10-14 days after subcutaneous injection of 1×10^6 cells into the right thigh. Groups of mice with the xenografted tumors included: (MCF7/S group: MIBI: n=9; GLA: n=8) and (MCF7/D40 group: MIBI: n=6; GLA: n=5).
^99mTc-GLA or ^99mTc-MIBI (5-8 mCi, 185-296 MBq) was injected via a jugular vein catheter. Dynamic images were acquired for 2 hours. Twenty-four projections were obtained, one from each camera. Each scintillation event within the camera's NaI crystal was registered as the digitized outputs from the camera's four photomultiplier tubes. The four photomultiplier outputs were compared to a 20-bit look-up table derived from a calibration procedure that involved moving a collimated source across the camera face.
Tumors and organs were harvested and counted in a dose calibrator. The percent injected dose per gram (% ID/g) was calculated. Membrane preparations made from MCF7/S and MCF7/D40 tumors were immunoblotted with the mouse monoclonal antibody C219 against Pgp followed by a secondary antibody, which was detected by chemiluminescence. […] No immunodetectable MDR1 Pgp was presented in MCF7/S cells.

[1] = Table 2, MCF7/D40 mice, 2 hours after injection
[2] = Table 4 (Example 3), MCF7/D40 mice

Q: Which “tumor-to-muscle ratio relative to that for 99mTc-sestamibi (fold higher)” value (MCF7/D40 tumors, 2 hours after injection) does the source give for ^99mTc-glucarate here?
A: Its value is 19.2 fold.

Q: And the “Biodistribution, blood” value [1]?
A: The value was 1.07 ± 0.14 % ID/gm.

Q: What about the “Biodistribution, heart” value [1] of the same substance?
A: The value was 0.55 ± 0.10 % ID/gm.

Q: What about the “Biodistribution, kidneys” value [1] of the same substance?
A: Its value is 22.10 ± 1.59 % ID/gm.

Q: What about the “Biodistribution, liver” value [1] of the same substance?
A: The value was 1.56 ± 0.18 % ID/gm.

Q: And the “Biodistribution, lung” value [1]?
A: The value was 1.41 ± 0.54 % ID/gm.

Q: And the “Biodistribution, muscle” value [1]?
A: Its value is 0.25 ± 0.04 % ID/gm.

Q: And the “Biodistribution, tumor” value [1]?
A: Its value is 1.39 ± 0.12 % ID/gm.

Q: What about the “Biodistribution, blood” value [2] of the same substance?
A: Its value is 1.07 ± 0.14 % ID/g.

Q: What about the “Biodistribution, heart” value [2] of the same substance?
A: Its value is 0.55 ± 0.1 % ID/g.

Q: And the “Biodistribution, kidneys” value [2]?
A: Its value is 22.10 ± 1.59 % ID/g.

Q: What about the “Biodistribution, liver” value [2] of the same substance?
A: The value was 1.56 ± 0.18 % ID/g.

Q: And the “Biodistribution, lung” value [2]?
A: Its value is 1.41 ± 0.54 % ID/g.

Q: And the “Biodistribution, muscle” value [2]?
A: The value was 0.25 ± 0.04 % ID/g.

Q: What about the “Biodistribution, tumor” value [2] of the same substance?
A: Its value is 1.39 ± 0.12 % ID/g.

Q: What about the Tumor/Blood ratio [2] of the same substance?
A: The Tumor/Blood ratio was 1.38 ± 0.19.

Q: And the Tumor/Muscle ratio [2]?
A: Its Tumor/Muscle ratio is 6.23 ± 0.89.

Q: And the mean tumor-to-muscle ratio (drug-resistant tumors (MCF7/D40))?
A: The mean tumor-to-muscle ratio was 6.2.
